Assay results as given in patent US9402875B2, “Amidated dopamine neuron stimulating peptide restoration of mitochondrial activity” (University of Kentucky Research Foundation, priority 2006, dated 2016).
Ends that are not written are not given here.

Columns and labels:
[1] = test system: unilateral 6-OHDA-lesioned rats; assay: Neurochemical content of tissue (HPLC-EC); type: in vivo, rat; details: 5 weeks after infusion
Description: Unilateral 6-OHDA Lesions: The 6-OHDA solution was delivered to two injection sites along the medial forebrain bundle (MFB) using a protocol described by Lundblad et al. (2002) Eur. J. Neurosci. 15:120-132. Five weeks after the unilateral 6-OHDA MFB lesion procedure, animals were grouped based on apomorphine (0.05 mg/kg, s.c.)-induced rotational behaviour: Animals with >300 rotations per 60 minutes were selected. Lesioned animals received 5 vit of either a 20 μg/vd, DNSP-11 solution or citrate buffer vehicle solution in a manner similar to infusion delivery in normal animals.
Neurochemical Content of Tissue: Lesioned animals were euthanized 5 weeks after DNSP-11 or vehicle infusion. The brains were sliced into 1 mm thick sections. […]
The in vitro studies and in vivo measures of the effects of DNSP-11 led to an investigation of the potential neurorestorative properties of DNSP-11 to damaged dopamine neurons in a unilateral rat model of PD. […] At 5 weeks, the substantia nigra and striatum from each rat was analyzed by high performance liquid chromatography coupled with electrochemical detection.
Rats were tested 3-4 weeks after the injection of 6-OHDA using low-dose (0.05 mg/kg, i.p.) apomorphine to induce rotational behavior. […] At 5 weeks, the substantia nigra and striatum from each rat was analyzed by high performance liquid chromatography coupled with electrochemical detection.

GFRα1 = biological target: T1, GFRα1 (Homo sapiens, UniProt P56159); assay: Pull-down assay and ELISA with GFRα1; type: binding; details: pull-down with biotinylated DNSP-11; supported by ELISA
T1 sequence (P56159 25-429): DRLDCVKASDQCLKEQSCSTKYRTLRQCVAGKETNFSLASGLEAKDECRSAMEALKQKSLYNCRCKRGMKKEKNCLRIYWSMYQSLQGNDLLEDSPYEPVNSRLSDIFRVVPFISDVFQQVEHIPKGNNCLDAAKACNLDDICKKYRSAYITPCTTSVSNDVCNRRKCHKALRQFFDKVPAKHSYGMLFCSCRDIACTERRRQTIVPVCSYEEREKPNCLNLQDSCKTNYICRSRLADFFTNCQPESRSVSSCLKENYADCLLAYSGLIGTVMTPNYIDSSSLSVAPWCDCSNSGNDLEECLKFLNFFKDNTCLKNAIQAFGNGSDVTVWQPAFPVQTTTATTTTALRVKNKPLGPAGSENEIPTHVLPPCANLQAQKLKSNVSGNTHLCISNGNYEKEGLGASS
Description: Specifically, a solution of 25 μL GFRα1 (1 mg/mL) was incubated with 50 μL of Dynabeads® (Invitrogen) in wash and bind buffer (0.1 M sodium phosphate, pH 8.2, 0.01% ^Tween® 20) for 10 minutes at room temperature. The beads were then washed three times in 100 μl, of wash and bind buffer. 2 μg of GDNF was added and incubated for 1 hour at 4° C. 25 μL GFRα1 (1 mg/mL) was incubated with 40 μg of biotinylated DNSP-11 (bDNSP-11) for 1 hour at 4° C. They were then added to 50 μL of hydrophilic streptavidin magnetic beads (New England Biolabs) and incubated for an hour at 4° C.
Moreover, the absence of interaction between GFRα1 with DNSP-11 is supported by ELISA.

MN9D cells = assay: TUNEL staining, mitochondrial toxins; type: cell-based
Description: MN9D cells and B65 cells were cultured in Dulbecco's Modified Eagle's Medium (DMEM; 11995 (containing pyridoxol HCl); Sigma, St. Louis, Mo.) supplemented with 10% fetal bovine serum (HyClone, Logan, Utah), 50 U/mL penicillin and streptomycin. For each assay the cells were treated with mitochondrial-specific environmental toxins, i.e., MPP+, rotenone, and/or TaClo, and with or without DNSP-11. After incubation with the toxins, the cells were plated on 24-well poly-D-lysine plates (50,000 cells/well) for TUNEL assay (as described below) or 100,000 cell/well for caspase-3 assay in DMEM medium with 1% (v/v) penicillin-streptomycin only (as described below).
Terminal deoxynucleotidyl transferase mediated X-dUTP nicked end DNA labeling of cells (TUNEL staining) was used to assess cells undergoing apoptosis. […] The biotinylated nucleotides are detected by using streptavidin-horseradish peroxidase conjugate followed by the substrate, diaminobenzidine (DAB). […] Cell were counted with 20× magnification (4 random fields/well), 4 wells per group. Ratio between apoptotic cells and total cells was calculated. […]

Question: How did the “DOPAC tissue content, substantia nigra” value ([1]; vehicle 7.10±1.40 ng/g) turn out when “PPEAPAEDRSL-NH2 [DNSP-11, PPEAPAEDRSL-amide]” was run?
Answer: Its value is 16.48 ± 4.01 ng/g.

Question: What about the “DA content, substantia nigra” value ([1]; vehicle 34.7±6.4 ng/g) of the same substance?
Answer: The value was 59.1 ± 7.3 ng/g.

Question: What about the “interaction with GFRα1” value (GFRα1) of the same substance?
Answer: The value was “do not interact”.

Question: And the “TUNEL staining, protection from toxins” value (MN9D cells; MPP+, rotenone or TaClo 1 to 12 hours, pretreatment with 10 nM or 100 nM DNSP-11)?
Answer: The value was “significant protection”.

Question: And the “TUNEL staining, DNSP-11 alone” value (MN9D cells; no toxin)?
Answer: The value was “no significant effect”.
